From ChEMBL document CHEMBL1156560, “4-(1,1-Dioxo-1,4-dihydro-1lambda6-benzo[1,4]thiazin-3-yl)-5-hydroxy-2H-pyridazin-3-ones as potent inhibitors of HCV NS5B polymerase” (Bioorg Med Chem Lett, 2008)

Columns and labels:
[1] = Apparent permeability from apical to basolateral side in human Caco-2 cells at 10 uM; type: ADME, cell-based
[2] = Oral bioavailability in cynomolgus monkey at 1 mg/kg; type: ADME, organism-based, Macaca fascicularis; conditions: in vivo
[3] = Metabolic stability in monkey liver microsomes; type: ADME, Macaca mulatta, Microsome; conditions: rhesus monkey
Hepatitis C virus [4] = assay: Inhibition of HCV 1b BK delta21 NS5B delta21 polymerase; design: species or system Hepatitis C virus subtype 1b
Hepatitis C virus [5] = assay: Antiviral activity against HCV 1b BK delta21 in Huh7/C24 cells after 72 hrs by replicon assay; type: functional, organism-based, Hepacivirus hominis; conditions: genotype 1b BK, Huh7/C24, 72 h
[6] = Cytotoxicity against human Huh7/C24 cells after 72 hrs; type: cell-based, Huh-7
[7] = Metabolic stability in human liver microsomes assessed as half life; type: ADME, Microsome

`CC(C)CCn1nc(-c2cccs2)c(O)c(C2=NS(=O)(=O)c3cc(N(C)S(C)(=O)=O)ccc3N2)c1=O` gave a Papp A→B at 10 µM [1] of 0.2 ×10⁻⁶ cm/s and a bioavailability [2] of 12%.
Work on `CC(C)CCn1nc(-c2cccs2)c(O)c(C2=Nc3ccc(NS(C)(=O)=O)cc3S(=O)(=O)N2)c1=O` yielded a Papp A→B at 10 µM [1] of 0.02 ×10⁻⁶ cm/s.
In the case of `Cc1ccc(-c2nn(Cc3ccccc3)c(=O)c(C3=Nc4ccccc4S(=O)(=O)N3)c2O)s1`, the half-life [3] is reported as > 60 min, the Papp A→B at 10 µM [1] is reported as 1.3 ×10⁻⁶ cm/s and the bioavailability [2] is reported as 33%.
For `CC(C)CCn1c(=O)c(C2=Nc3ccc(NS(C)(=O)=O)cc3S(=O)(=O)N2)c(O)c2cccn21`, the IC50 (Hepatitis C virus [4]) was < 10 nM, the EC50 (Hepatitis C virus [5]) was 8.5 nM and the bioavailability [2] was 0%.
For `CS(=O)(=O)Nc1ccc2c(c1)S(=O)(=O)C=C(c1c(O)c(-c3cccs3)nn(Cc3ccccc3)c1=O)N2`, the IC50 (Hepatitis C virus [4]) was 18 nM, the EC50 (Hepatitis C virus [5]) was 36 nM and the CC50 at 72 h [6] was > 1000 nM. The half-life [7] was > 60 min.
In the case of `CC(C)CCn1nc(-c2cccs2)c(O)c(C2=CS(=O)(=O)c3cc(NS(C)(=O)=O)ccc3N2)c1=O`, the IC50 (Hepatitis C virus [4]) is reported as < 10 nM, the EC50 (Hepatitis C virus [5]) is reported as 1.1 nM and the CC50 at 72 h [6] is reported as > 1000 nM. The half-life [7] was > 60 min, the half-life [3] was 20 min and the Papp A→B at 10 µM [1] was 0.012 ×10⁻⁶ cm/s. The bioavailability [2] was 4%.
For `CC(C)CCn1nc(-c2ccccc2)c(O)c(C2=CS(=O)(=O)c3cc(NS(C)(=O)=O)ccc3N2)c1=O`, the IC50 (Hepatitis C virus [4]) was 250 nM, the EC50 (Hepatitis C virus [5]) was 190 nM and the CC50 at 72 h [6] was > 33000 nM. It also gave a half-life [7] of 36 min, a half-life [3] of 34 min and a Papp A→B at 10 µM [1] of 0.019 ×10⁻⁶ cm/s. It also gave a bioavailability [2] of 1%.
`CC(C)CCn1nc(-c2cccs2)c(O)c(C2=CS(=O)(=O)c3cc(N(C)S(C)(=O)=O)ccc3N2)c1=O` gave an IC50 (Hepatitis C virus [4]) of 1600 nM.
For `CCC(C)(C)CCn1nc(-c2cccs2)c(O)c(C2=CS(=O)(=O)c3cc(NS(C)(=O)=O)ccc3N2)c1=O`, the IC50 (Hepatitis C virus [4]) was < 10 nM, the EC50 (Hepatitis C virus [5]) was 2.7 nM and the CC50 at 72 h [6] was > 1000 nM. The half-life [7] was 30 min.
For `CS(=O)(=O)Nc1ccc2c(c1)S(=O)(=O)C=C(c1c(O)c(-c3cccs3)nn(CC3CCCC3)c1=O)N2`, the IC50 (Hepatitis C virus [4]) was 39 nM, the EC50 (Hepatitis C virus [5]) was 15 nM and the CC50 at 72 h [6] was > 1000 nM. The half-life [7] was 43 min.
With `CS(=O)(=O)Nc1ccc2c(c1)S(=O)(=O)C=C(c1c(O)c(-c3cccs3)nn(CC3CC3)c1=O)N2` the IC50 (Hepatitis C virus [4]) was 15 nM, the EC50 (Hepatitis C virus [5]) was 3.5 nM and the CC50 at 72 h [6] was > 1000 nM. The half-life [7] was > 60 min.
In the case of `CC(C)(C)CCn1c(=O)c(C2=CS(=O)(=O)c3cc(NS(C)(=O)=O)ccc3N2)c(O)c2cccn21`, the IC50 (Hepatitis C virus [4]) is reported as < 10 nM, the EC50 (Hepatitis C virus [5]) is reported as 1.5 nM and the CC50 at 72 h [6] is reported as > 1000 nM. It also gave a half-life [7] of 30 min, a half-life [3] of 4.7 min and a Papp A→B at 10 µM [1] of 0.3 ×10⁻⁶ cm/s. The bioavailability [2] was 1%.
Molecule `Cc1ccc(-c2nn(Cc3ccccc3)c(=O)c(C3=CS(=O)(=O)c4ccccc4N3)c2O)s1` has an IC50 (Hepatitis C virus [4]) of 12000 nM, a half-life [3] of 37 min and a Papp A→B at 10 µM [1] of 0.3 ×10⁻⁶ cm/s. It also gave a bioavailability [2] of 13%.
For `Cc1ccc(-c2nn(Cc3ccccc3)c(=O)c(C3=CS(=O)(=O)c4cc(N(C)S(C)(=O)=O)ccc4N3)c2O)s1`, the IC50 (Hepatitis C virus [4]) was 9000 nM and the half-life [7] was > 60 min.
For `Cc1ccc(-c2nn(Cc3ccccc3)c(=O)c(C3=CS(=O)(=O)c4cc(NS(C)(=O)=O)ccc4N3)c2O)s1`, the IC50 (Hepatitis C virus [4]) was 1600 nM and the half-life [7] was > 60 min.
For `CC(C)CCn1c(=O)c(C2=CS(=O)(=O)c3cc(NS(C)(=O)=O)ccc3N2)c(O)c2cccn21`, the IC50 (Hepatitis C virus [4]) was 27 nM, the EC50 (Hepatitis C virus [5]) was 13 nM and the CC50 at 72 h [6] was > 1000 nM. For the same molecule, the half-life [7] was > 60 min and the Papp A→B at 10 µM [1] was 0.027 ×10⁻⁶ cm/s.
In the case of `CC(C)CCn1c(=O)c(C2=CS(=O)(=O)c3cc(N(C)S(C)(=O)=O)ccc3N2)c(O)c2cccn21`, the IC50 (Hepatitis C virus [4]) is reported as 440 nM, the EC50 (Hepatitis C virus [5]) is reported as 940 nM and the CC50 at 72 h [6] is reported as > 33000 nM. The half-life [7] was > 60 min, the half-life [3] was 20 min and the Papp A→B at 10 µM [1] was 0.012 ×10⁻⁶ cm/s. For the same molecule, the bioavailability [2] was 4%.
